Earlier results as cited in patent publication US20250356959A1, “Toxicity Prediction Of Compounds In Cellular Structures” (Sanofi, priority 2022, published 2025).

System: liver cells
Conditions: positive control, 60 micro moles

## CN(C)CCCN1c2ccccc2Sc2ccc(Cl)cc21 [CPZ, Chlorpromazine]
  known toxic effect of reference compound: toxic to liver cells and triggers cholestasis
